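Five concentrations, 48 hours, 96-well plates. The concentration for 50% growth inhibition is given as GI50.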 Active and inactive are the calls of the source. No stated cut-off is given here; in the data, active = GI50 up to about 1.1 µM and inactive = higher.
Tests used:
Test in all cases: inhibition of tumour cell growth, NCI panel, 48 h
SF-268 = test system: SF-268
SK-MEL-2 = test system: SK-MEL-2
786-0 = test system: 786-0
NCI-H460 = test system: NCI-H460
NCI-H23 = test system: NCI-H23
HOP-92 = test system: HOP-92
HOP-62 = test system: HOP-62
SF-295 = test system: SF-295
MCF7 = test system: MCF7
TK-10 = test system: TK-10
HCT-116 = test system: HCT-116
NCI-H226 = test system: NCI-H226
RXF 393 = test system: RXF 393
MOLT-4 = test system: MOLT-4
SN12C = test system: SN12C
A498 = test system: A498
UO-31 = test system: UO-31
IGROV-1 = test system: IGROV-1
CAKI-1 = test system: CAKI-1
UACC-62 = test system: UACC-62

| SMILES | GI50 (SF-268) | GI50 (SK-MEL-2) | GI50 (786-0) | GI50 (NCI-H460) | GI50 (NCI-H23) | GI50 (HOP-92) | GI50 (HOP-62) | GI50 (SF-295) | GI50 (MCF7) | GI50 (TK-10) | GI50 (HCT-116) | GI50 (NCI-H226) | GI50 (RXF 393) | GI50 (MOLT-4) | GI50 (SN12C) | GI50 (A498) | GI50 (UO-31) | GI50 (IGROV-1) | GI50 (CAKI-1) | GI50 (UACC-62) |
| --- | --- | --- | --- | --- | --- | --- | --- | --- | --- | --- | --- | --- | --- | --- | --- | --- | --- | --- | --- | --- |
| NC1(c2cc3ccccc3s2)CCCC1 | > 100 µM (inactive) | 58.9 µM (inactive) | 54.2 µM (inactive) | 33.6 µM (inactive) | > 100 µM (inactive) | 51.6 µM (inactive) | > 100 µM (inactive) | 71.3 µM (inactive) | 57.8 µM (inactive) | 34.1 µM (inactive) | 33.8 µM (inactive) | > 100 µM (inactive) | 43.8 µM (inactive) | 18.4 µM (inactive) | 57.5 µM (inactive) | > 100 µM (inactive) | 69.2 µM (inactive) | > 100 µM (inactive) | > 100 µM (inactive) | 50.4 µM (inactive) |
| Cn1c(=O)c2c(no[n+]2[O-])n(C)c1=O | 25.6 µM (inactive) | 45 µM (inactive) | 23.8 µM (inactive) | > 100 µM (inactive) | 22.4 µM (inactive) | 19.1 µM (inactive) | 18.4 µM (inactive) | 52.4 µM (inactive) | > 100 µM (inactive) | 18.9 µM (inactive) | > 100 µM (inactive) | 18.2 µM (inactive) | 27.7 µM (inactive) | > 100 µM (inactive) | 39.3 µM (inactive) | 18.2 µM (inactive) | 31 µM (inactive) | 22.2 µM (inactive) | 19.3 µM (inactive) | 19.5 µM (inactive) |
| O=S(=O)(O)CCSSCCS(=O)(=O)O | > 1000 µM (inactive) | > 1000 µM (inactive) | > 1000 µM (inactive) | > 1000 µM (inactive) | > 1000 µM (inactive) | > 1000 µM (inactive) | > 1000 µM (inactive) | > 1000 µM (inactive) | > 1000 µM (inactive) | > 1000 µM (inactive) | > 1000 µM (inactive) | > 1000 µM (inactive) | > 1000 µM (inactive) | > 1000 µM (inactive) | > 1000 µM (inactive) | > 1000 µM (inactive) | > 1000 µM (inactive) | > 1000 µM (inactive) | > 1000 µM (inactive) | > 1000 µM (inactive) |
| CCC1(c2ccc(N)cc2)CCC(=O)NC1=O (stereo not given) [AMINOGLUTETHIMIDE] | 2860 µM (inactive) | 3510 µM (inactive) | 3420 µM (inactive) | 2580 µM (inactive) | 3240 µM (inactive) | 1030 µM (inactive) | 1050 µM (inactive) | 1880 µM (inactive) | 3010 µM (inactive) | 2170 µM (inactive) | 2620 µM (inactive) | 1880 µM (inactive) | 1330 µM (inactive) | 1440 µM (inactive) | 3400 µM (inactive) | 2310 µM (inactive) | 1930 µM (inactive) | 3450 µM (inactive) | 1460 µM (inactive) | 1820 µM (inactive) |
| Cc1cc(C)c2c(n1)S(=O)(=O)N(CCCN1CCN(c3cccc(C(F)(F)F)c3)CC1)C(C(=O)c1ccc(Cl)cc1)=C2O | 3.69 µM (inactive) | 3.91 µM (inactive) | 2.47 µM (inactive) | 1.79 µM (inactive) | 2.47 µM (inactive) | 2.5 µM (inactive) | 5.81 µM (inactive) | 3.29 µM (inactive) | 3.26 µM (inactive) | 3.01 µM (inactive) | 2.81 µM (inactive) | 2.45 µM (inactive) | 4.34 µM (inactive) | 0.418 µM (active) | 2.02 µM (inactive) | 4.52 µM (inactive) | 1.33 µM (inactive) | 3.26 µM (inactive) | 1.11 µM (active) | 4.74 µM (inactive) |
| C=C(NC(=O)C(=C)NC(=O)c1csc(C2=NC3c4csc(n4)C4NC(=O)c5csc(n5)C(C(C)(O)C(C)O)NC(=O)C5CSC(=N5)/C(=C/C)NC(=O)C(C(C)O)NC(=O)c5csc(n5)C3(CC2)NC(=O)C(C)NC(=O)C(=C)NC(=O)C(=C)NC(=O)C(C(C)C)NC2C=Cc3c(C(C)O)cc(nc3C2O)C(=O)OC4C)n1)C(N)=O (stereo not given) | 7.19 µM (inactive) | 2.22 µM (inactive) | 1.29 µM (inactive) | 4.7 µM (inactive) | 7.13 µM (inactive) | 4.67 µM (inactive) | 19.6 µM (inactive) | 26 µM (inactive) | 1.33 µM (inactive) | 4.18 µM (inactive) | 0.312 µM (active) | 1.19 µM (inactive) | 0.708 µM (active) | 0.364 µM (active) | 3.75 µM (inactive) | 2.29 µM (inactive) | 60.5 µM (inactive) | 7.28 µM (inactive) | 3.69 µM (inactive) | 0.54 µM (active) |
| CC1=C(C(=O)NNC(=O)C(N)=O)CC(C(=O)NNC(=O)C(N)=O)=C(C)N1 | > 100 µM (inactive) | > 100 µM (inactive) | > 100 µM (inactive) | > 100 µM (inactive) | > 100 µM (inactive) | > 100 µM (inactive) | > 100 µM (inactive) | > 100 µM (inactive) | > 100 µM (inactive) | > 100 µM (inactive) | > 100 µM (inactive) | > 100 µM (inactive) | > 100 µM (inactive) | > 100 µM (inactive) | > 100 µM (inactive) | > 100 µM (inactive) | > 100 µM (inactive) | > 100 µM (inactive) | > 100 µM (inactive) | > 100 µM (inactive) |
| N#CC1(C#N)C2=C(CCCC2)NC(c2ccc(Br)cc2)C1(C#N)C#N (stereo not given) | 7.78 µM (inactive) | 15.6 µM (inactive) | 1.79 µM (inactive) | 24.1 µM (inactive) | 12.3 µM (inactive) | 4.76 µM (inactive) | 17.4 µM (inactive) | 22.8 µM (inactive) | 5.32 µM (inactive) | 4.44 µM (inactive) | 1.84 µM (inactive) | 20.2 µM (inactive) | 2.24 µM (inactive) | 0.384 µM (active) | 2.33 µM (inactive) | 19 µM (inactive) | 1.46 µM (inactive) | 2.83 µM (inactive) | 1.75 µM (inactive) | 16.5 µM (inactive) |
| Nc1nc(Cl)c2ncn(Cc3ccc(CCl)cc3)c2n1 | 1.88 µM (inactive) | 11.5 µM (inactive) | 5.31 µM (inactive) | 4.25 µM (inactive) | 12 µM (inactive) | 1.64 µM (inactive) | 6.85 µM (inactive) | 10.8 µM (inactive) | 2.81 µM (inactive) | 16.6 µM (inactive) | 2.76 µM (inactive) | 10.4 µM (inactive) | 1.3 µM (inactive) | 2.96 µM (inactive) | 12.2 µM (inactive) | 22 µM (inactive) | 11.9 µM (inactive) | 9.23 µM (inactive) | 2.49 µM (inactive) | 2.23 µM (inactive) |
| CNC(=O)OCc1nc(SC)n(C)c1COC(=O)NC | 119 µM (inactive) | 119 µM (inactive) | 139 µM (inactive) | 59.6 µM (inactive) | 130 µM (inactive) | 111 µM (inactive) | 38.5 µM (inactive) | 187 µM (inactive) | 132 µM (inactive) | 177 µM (inactive) | 167 µM (inactive) | 83.8 µM (inactive) | 50.8 µM (inactive) | 26.4 µM (inactive) | 103 µM (inactive) | 198 µM (inactive) | 185 µM (inactive) | 175 µM (inactive) | 87.7 µM (inactive) | 60.1 µM (inactive) |

From ChEMBL document CHEMBL1201862, “PubChem BioAssay data set” (2004)
